Results taken from PMC7407272, “Induction of Lysosome Membrane Permeabilization as a Therapeutic Strategy to Target Pancreatic Cancer Stem Cells” (Cancers, 2020).

Assays:
FES = target: T1, FES (Homo sapiens, UniProt P07332); experiment: KINOMEscan; type: binding; settings: read-out: % Ctrl
T1 construct: purchased DiscoveRx KINOMEscan

EGFR(S752-I759del) = target: T2, EGFR(S752-I759del) (Homo sapiens, UniProt P00533, DEL752-759); experiment: KINOMEscan; type: binding; settings: read-out: % Ctrl
T2 construct: purchased DiscoveRx KINOMEscan

SGK2 = target: T3, SGK2 (Homo sapiens, UniProt Q9HBY8); experiment: KINOMEscan; type: binding; settings: read-out: % Ctrl
T3 construct: purchased DiscoveRx KINOMEscan

JAK2(JH1D.-cat.) = target: T4, JAK2(JH1D.-cat.) (Homo sapiens, UniProt O60674); experiment: KINOMEscan; type: binding; settings: read-out: % Ctrl
T4 construct: JAK2(JH1D.-cat.); purchased DiscoveRx KINOMEscan
T4 sequence (O60674 849-1132 limits assumed): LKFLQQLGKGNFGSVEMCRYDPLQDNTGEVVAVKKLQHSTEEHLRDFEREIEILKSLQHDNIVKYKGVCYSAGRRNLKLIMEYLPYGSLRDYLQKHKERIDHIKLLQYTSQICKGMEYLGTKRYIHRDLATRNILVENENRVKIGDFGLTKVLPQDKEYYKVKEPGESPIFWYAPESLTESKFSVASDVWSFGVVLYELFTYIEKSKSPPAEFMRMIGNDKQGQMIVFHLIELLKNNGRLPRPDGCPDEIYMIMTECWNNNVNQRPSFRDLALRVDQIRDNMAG

GSK3A = target: T5, GSK3A (Homo sapiens, UniProt P49840); experiment: KINOMEscan; type: binding; settings: read-out: % Ctrl
T5 construct: purchased DiscoveRx KINOMEscan

HCK = target: T6, HCK (Homo sapiens, UniProt P08631); experiment: KINOMEscan; type: binding; settings: read-out: % Ctrl
T6 construct: purchased DiscoveRx KINOMEscan

CSNK1A1 = target: T7, CSNK1A1 (Homo sapiens, UniProt P48729); experiment: KINOMEscan; type: binding; settings: read-out: % Ctrl
T7 construct: purchased DiscoveRx KINOMEscan

CSF1R-autoi. = target: T8, CSF1R-autoi. (Homo sapiens, UniProt P07333); experiment: KINOMEscan; type: binding; settings: read-out: % Ctrl
T8 construct: purchased DiscoveRx KINOMEscan

FLT3(D835H) = target: T9, FLT3(D835H) (Homo sapiens, UniProt P36888, D835H); experiment: KINOMEscan; type: binding; settings: read-out: % Ctrl
T9 construct: purchased DiscoveRx KINOMEscan

PRKCQ = target: T10, PRKCQ (Homo sapiens, UniProt Q04759); experiment: KINOMEscan; type: binding; settings: read-out: % Ctrl
T10 construct: purchased DiscoveRx KINOMEscan
T10 sequence (Q04759 whole entry): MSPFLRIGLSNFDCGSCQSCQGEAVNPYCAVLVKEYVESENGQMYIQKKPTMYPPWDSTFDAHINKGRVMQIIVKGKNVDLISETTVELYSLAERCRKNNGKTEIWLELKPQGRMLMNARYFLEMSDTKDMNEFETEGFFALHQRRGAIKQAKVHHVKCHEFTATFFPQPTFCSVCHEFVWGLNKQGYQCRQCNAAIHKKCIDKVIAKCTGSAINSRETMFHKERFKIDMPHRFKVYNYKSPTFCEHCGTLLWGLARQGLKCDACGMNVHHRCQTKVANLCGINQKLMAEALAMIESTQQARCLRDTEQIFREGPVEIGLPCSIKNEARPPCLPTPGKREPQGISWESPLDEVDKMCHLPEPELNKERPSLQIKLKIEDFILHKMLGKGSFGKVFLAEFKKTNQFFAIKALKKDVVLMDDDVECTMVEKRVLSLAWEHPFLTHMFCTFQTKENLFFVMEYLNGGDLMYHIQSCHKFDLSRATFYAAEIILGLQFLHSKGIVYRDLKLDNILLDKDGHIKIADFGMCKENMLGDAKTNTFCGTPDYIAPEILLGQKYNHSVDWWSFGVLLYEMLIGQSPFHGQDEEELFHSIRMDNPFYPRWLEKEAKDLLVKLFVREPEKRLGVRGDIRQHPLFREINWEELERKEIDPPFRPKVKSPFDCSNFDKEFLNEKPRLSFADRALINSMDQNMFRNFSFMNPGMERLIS

PDGFRB = target: T11, PDGFRB (Homo sapiens, UniProt P09619); experiment: KINOMEscan; type: binding; settings: read-out: % Ctrl
T11 construct: purchased DiscoveRx KINOMEscan

BRK = target: T12, BRK (Homo sapiens, UniProt Q13882); experiment: KINOMEscan; type: binding; settings: read-out: % Ctrl
T12 construct: purchased DiscoveRx KINOMEscan
T12 sequence (Q13882 whole entry): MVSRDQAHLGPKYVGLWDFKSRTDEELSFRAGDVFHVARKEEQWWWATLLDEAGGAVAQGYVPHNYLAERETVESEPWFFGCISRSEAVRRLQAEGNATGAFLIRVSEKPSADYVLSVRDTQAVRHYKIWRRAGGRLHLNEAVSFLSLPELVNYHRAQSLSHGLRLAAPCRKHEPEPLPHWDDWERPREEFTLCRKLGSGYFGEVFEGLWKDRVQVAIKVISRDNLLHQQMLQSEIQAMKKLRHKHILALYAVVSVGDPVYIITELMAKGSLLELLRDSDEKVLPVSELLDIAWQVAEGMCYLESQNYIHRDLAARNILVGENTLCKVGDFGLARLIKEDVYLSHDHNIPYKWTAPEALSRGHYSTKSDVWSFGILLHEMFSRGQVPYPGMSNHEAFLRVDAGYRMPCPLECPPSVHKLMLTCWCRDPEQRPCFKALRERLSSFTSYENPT

PCTK2 = target: T13, PCTK2 (Homo sapiens, UniProt Q00537); experiment: KINOMEscan; type: binding; settings: read-out: % Ctrl
T13 construct: purchased DiscoveRx KINOMEscan

EGFR(T790M) = target: T14, EGFR(T790M) (Homo sapiens, UniProt P00533, T790M); experiment: KINOMEscan; type: binding; settings: read-out: % Ctrl
T14 construct: purchased DiscoveRx KINOMEscan

CDK4-cyclinD1 = target: T15, CDK4-cyclinD1 (Homo sapiens, UniProt P11802); experiment: KINOMEscan; type: binding; settings: read-out: % Ctrl
T15 construct: purchased DiscoveRx KINOMEscan
T15 sequence (P11802 whole entry): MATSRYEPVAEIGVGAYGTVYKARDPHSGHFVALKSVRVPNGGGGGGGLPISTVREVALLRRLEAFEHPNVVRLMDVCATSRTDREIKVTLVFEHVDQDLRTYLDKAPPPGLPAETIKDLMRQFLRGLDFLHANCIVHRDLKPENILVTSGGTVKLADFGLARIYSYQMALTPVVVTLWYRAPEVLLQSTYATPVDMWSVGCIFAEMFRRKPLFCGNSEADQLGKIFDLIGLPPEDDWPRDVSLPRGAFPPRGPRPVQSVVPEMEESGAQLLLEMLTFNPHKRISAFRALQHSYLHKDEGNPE
T15 sequence (P24385 whole entry partner): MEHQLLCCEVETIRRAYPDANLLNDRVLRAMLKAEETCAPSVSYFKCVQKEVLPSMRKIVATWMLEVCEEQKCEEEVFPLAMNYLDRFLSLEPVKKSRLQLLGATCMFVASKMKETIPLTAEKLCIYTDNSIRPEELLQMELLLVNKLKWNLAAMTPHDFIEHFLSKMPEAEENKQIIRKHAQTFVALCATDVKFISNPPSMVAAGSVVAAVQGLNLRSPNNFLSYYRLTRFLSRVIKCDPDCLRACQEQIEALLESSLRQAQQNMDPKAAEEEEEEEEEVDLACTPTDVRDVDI

MLK3 = target: T16, MLK3 (Homo sapiens, UniProt Q16584); experiment: KINOMEscan; type: binding; settings: read-out: % Ctrl
T16 construct: purchased DiscoveRx KINOMEscan

[1] = system: re-plated PDAC2-derived spheres; experiment: Cytosolic cysteine cathepsin activity; type: cell-based, human; settings: 1.25 or 2.5 µM, 6 h
Method: Spheres were re-plated, and then treated the following day with the indicated concentration of compounds for 6 h in CSC media. Cells were subsequently placed on ice and extracted with either 25 µg/mL or 250 µg/mL of digitonin in 250 mM sucrose, 20 mM HEPES, 10 mM KCl, 1.5 mM MgCl2, 1 mM EDTA, 1 mM EGTA, 1 mM pefablock, pH 7.5. The extracts were taken and spun down briefly to eliminate floating cells. Cathepsin activity was measured in a 96 well format by measuring cleavage of zFR-AMC (Z-Phe-Arg-AMC. Z: N-carbobenzyloxy; 7-Amino-4-methylcoumarin), as previously described.

BIKE = target: T17, BIKE (Homo sapiens, UniProt Q9NSY1); experiment: KINOMEscan; type: binding; settings: read-out: % Ctrl
T17 construct: purchased DiscoveRx KINOMEscan

PIK3CD = target: T18, PIK3CD (Homo sapiens, UniProt O00329); experiment: KINOMEscan; type: binding; settings: read-out: % Ctrl
T18 construct: purchased DiscoveRx KINOMEscan

AKT2 = target: T19, AKT2 (Homo sapiens, UniProt P31751); experiment: KINOMEscan; type: binding; settings: read-out: % Ctrl
T19 construct: purchased DiscoveRx KINOMEscan

TRKC = target: T20, TRKC (Homo sapiens, UniProt Q16288); experiment: KINOMEscan; type: binding; settings: read-out: % Ctrl
T20 construct: purchased DiscoveRx KINOMEscan

PRKX = target: T21, PRKX (Homo sapiens, UniProt P51817); experiment: KINOMEscan; type: binding; settings: read-out: % Ctrl
T21 construct: purchased DiscoveRx KINOMEscan

PAK7 = target: T22, PAK7 (Homo sapiens, UniProt Q9P286); experiment: KINOMEscan; type: binding; settings: read-out: % Ctrl
T22 construct: purchased DiscoveRx KINOMEscan

KIT = target: T23, KIT (Homo sapiens, UniProt P10721); experiment: KINOMEscan; type: binding; settings: read-out: % Ctrl
T23 construct: purchased DiscoveRx KINOMEscan
T23 sequence (P10721 26-976): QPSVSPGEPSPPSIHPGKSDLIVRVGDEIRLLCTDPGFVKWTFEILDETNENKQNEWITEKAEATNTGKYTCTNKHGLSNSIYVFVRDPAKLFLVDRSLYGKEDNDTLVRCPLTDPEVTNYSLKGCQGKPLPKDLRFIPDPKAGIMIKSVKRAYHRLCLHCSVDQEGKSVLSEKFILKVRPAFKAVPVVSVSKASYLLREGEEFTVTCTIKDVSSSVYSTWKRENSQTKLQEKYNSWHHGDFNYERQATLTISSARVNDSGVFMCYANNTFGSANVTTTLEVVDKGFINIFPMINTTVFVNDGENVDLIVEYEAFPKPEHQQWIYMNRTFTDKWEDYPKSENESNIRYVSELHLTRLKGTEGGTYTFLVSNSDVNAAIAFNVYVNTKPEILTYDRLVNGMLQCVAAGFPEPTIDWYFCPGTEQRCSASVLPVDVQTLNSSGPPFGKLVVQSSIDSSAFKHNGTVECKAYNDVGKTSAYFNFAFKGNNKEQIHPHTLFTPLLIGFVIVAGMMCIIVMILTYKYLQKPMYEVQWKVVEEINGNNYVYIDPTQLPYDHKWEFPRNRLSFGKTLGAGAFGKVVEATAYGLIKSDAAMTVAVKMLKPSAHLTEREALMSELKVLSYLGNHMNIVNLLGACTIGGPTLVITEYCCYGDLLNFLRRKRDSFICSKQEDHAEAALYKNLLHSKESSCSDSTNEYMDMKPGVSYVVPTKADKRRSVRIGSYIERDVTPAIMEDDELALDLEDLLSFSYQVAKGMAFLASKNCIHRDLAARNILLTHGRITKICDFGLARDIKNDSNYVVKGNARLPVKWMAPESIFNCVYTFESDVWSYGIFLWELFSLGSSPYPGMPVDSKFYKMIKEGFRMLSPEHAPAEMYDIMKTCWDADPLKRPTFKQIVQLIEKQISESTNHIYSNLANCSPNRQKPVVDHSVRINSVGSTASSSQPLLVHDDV

EGFR(E746-A750del) = target: T24, EGFR(E746-A750del) (Homo sapiens, UniProt P00533, DEL746-750); experiment: KINOMEscan; type: binding; settings: read-out: % Ctrl
T24 construct: purchased DiscoveRx KINOMEscan

MET(Y1235D) = target: T25, MET(Y1235D) (Homo sapiens, UniProt P08581, Y1235D); experiment: KINOMEscan; type: binding; settings: read-out: % Ctrl
T25 construct: purchased DiscoveRx KINOMEscan
T25 sequence (P08581 25-1390 Y1235D): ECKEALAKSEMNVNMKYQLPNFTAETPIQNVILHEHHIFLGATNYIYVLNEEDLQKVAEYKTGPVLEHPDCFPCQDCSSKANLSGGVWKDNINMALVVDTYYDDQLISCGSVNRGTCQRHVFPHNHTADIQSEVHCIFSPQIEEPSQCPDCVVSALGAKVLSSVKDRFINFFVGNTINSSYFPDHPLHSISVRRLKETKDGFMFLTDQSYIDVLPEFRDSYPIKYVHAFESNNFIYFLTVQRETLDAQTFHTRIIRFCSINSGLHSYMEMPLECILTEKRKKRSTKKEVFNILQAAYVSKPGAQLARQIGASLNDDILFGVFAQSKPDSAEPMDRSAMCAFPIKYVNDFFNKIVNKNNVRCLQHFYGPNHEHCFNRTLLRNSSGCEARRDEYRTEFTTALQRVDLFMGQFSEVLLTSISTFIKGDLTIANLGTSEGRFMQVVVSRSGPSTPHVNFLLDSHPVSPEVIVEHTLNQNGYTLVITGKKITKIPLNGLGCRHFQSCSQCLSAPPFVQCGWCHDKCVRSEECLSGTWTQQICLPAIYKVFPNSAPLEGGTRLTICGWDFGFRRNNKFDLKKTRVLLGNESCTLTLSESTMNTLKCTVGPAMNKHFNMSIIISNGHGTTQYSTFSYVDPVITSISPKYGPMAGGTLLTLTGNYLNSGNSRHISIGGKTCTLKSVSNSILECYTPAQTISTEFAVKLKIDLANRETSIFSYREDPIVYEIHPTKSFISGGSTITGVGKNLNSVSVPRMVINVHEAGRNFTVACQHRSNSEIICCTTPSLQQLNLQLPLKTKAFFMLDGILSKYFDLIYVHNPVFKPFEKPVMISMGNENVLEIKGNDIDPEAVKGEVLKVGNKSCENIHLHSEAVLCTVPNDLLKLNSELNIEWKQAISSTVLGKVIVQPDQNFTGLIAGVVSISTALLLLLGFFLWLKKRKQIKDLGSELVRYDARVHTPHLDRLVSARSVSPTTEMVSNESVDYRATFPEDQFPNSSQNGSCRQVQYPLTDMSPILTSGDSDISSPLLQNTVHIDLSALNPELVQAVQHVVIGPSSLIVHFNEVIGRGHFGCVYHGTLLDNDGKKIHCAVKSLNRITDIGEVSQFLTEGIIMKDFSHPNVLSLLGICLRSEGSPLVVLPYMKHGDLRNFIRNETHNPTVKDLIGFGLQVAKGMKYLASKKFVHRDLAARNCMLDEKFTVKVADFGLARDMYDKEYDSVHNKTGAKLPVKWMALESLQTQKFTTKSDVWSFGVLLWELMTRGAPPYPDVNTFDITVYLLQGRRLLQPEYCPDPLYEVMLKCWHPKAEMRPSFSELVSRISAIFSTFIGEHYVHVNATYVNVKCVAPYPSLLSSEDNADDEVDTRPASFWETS

p38-beta = target: T26, p38-beta (Homo sapiens, UniProt Q15759); experiment: KINOMEscan; type: binding; settings: read-out: % Ctrl
T26 construct: purchased DiscoveRx KINOMEscan

ERK1 = target: T27, ERK1 (Homo sapiens, UniProt P27361); experiment: KINOMEscan; type: binding; settings: read-out: % Ctrl
T27 construct: purchased DiscoveRx KINOMEscan

ABL1(F317L)-P = target: T28, ABL1(F317L)-P (Homo sapiens, UniProt P00519, F317L); experiment: KINOMEscan; type: binding; settings: read-out: % Ctrl
T28 construct: purchased DiscoveRx KINOMEscan

NEK2 = target: T29, NEK2 (Homo sapiens, UniProt P51955); experiment: KINOMEscan; type: binding; settings: read-out: % Ctrl
T29 construct: purchased DiscoveRx KINOMEscan

DDR2 = target: T30, DDR2 (Homo sapiens, UniProt Q16832); experiment: KINOMEscan; type: binding; settings: read-out: % Ctrl
T30 construct: purchased DiscoveRx KINOMEscan

CAMK1G = target: T31, CAMK1G (Homo sapiens, UniProt Q96NX5); experiment: KINOMEscan; type: binding; settings: read-out: % Ctrl
T31 construct: purchased DiscoveRx KINOMEscan

DRAK1 = target: T32, DRAK1 (Homo sapiens, UniProt Q9UEE5); experiment: KINOMEscan; type: binding; settings: read-out: % Ctrl
T32 construct: purchased DiscoveRx KINOMEscan

STK35 = target: T33, STK35 (Homo sapiens, UniProt Q8TDR2); experiment: KINOMEscan; type: binding; settings: read-out: % Ctrl
T33 construct: purchased DiscoveRx KINOMEscan
T33 sequence (Q8TDR2 whole entry): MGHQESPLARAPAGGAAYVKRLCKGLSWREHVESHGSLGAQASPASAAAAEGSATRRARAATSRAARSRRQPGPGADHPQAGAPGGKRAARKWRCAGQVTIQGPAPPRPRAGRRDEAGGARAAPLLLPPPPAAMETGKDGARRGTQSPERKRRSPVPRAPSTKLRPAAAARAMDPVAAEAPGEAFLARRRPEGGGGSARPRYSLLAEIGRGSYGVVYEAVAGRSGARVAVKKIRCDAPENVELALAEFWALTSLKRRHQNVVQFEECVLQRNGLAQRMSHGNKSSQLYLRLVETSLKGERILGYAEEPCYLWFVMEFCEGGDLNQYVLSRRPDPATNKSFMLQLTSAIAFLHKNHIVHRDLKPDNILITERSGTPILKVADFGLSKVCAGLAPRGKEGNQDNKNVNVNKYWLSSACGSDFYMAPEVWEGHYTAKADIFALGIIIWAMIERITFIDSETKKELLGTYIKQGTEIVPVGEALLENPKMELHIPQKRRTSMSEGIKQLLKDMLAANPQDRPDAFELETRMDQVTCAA

PRKD1 = target: T34, PRKD1 (Homo sapiens, UniProt Q15139); experiment: KINOMEscan; type: binding; settings: read-out: % Ctrl
T34 construct: purchased DiscoveRx KINOMEscan

RPS6KA5(KD1-N-t.) = target: T35, RPS6KA5(KD1-N-t.) (Homo sapiens, UniProt O75582); experiment: KINOMEscan; type: binding; settings: read-out: % Ctrl
T35 construct: RPS6KA5(KD1-N-t.); purchased DiscoveRx KINOMEscan

MST1 = target: T36, MST1 (Homo sapiens, UniProt Q13043); experiment: KINOMEscan; type: binding; settings: read-out: % Ctrl
T36 construct: purchased DiscoveRx KINOMEscan

[2] = system: implanted invasive glioblastoma spheroids or gliobastomas PDXs; parameters: method as in PMID 28270132; settings: 100 mg/kg; cited from earlier work

CN1CCC(CNc2ccc3ncc(C(=O)Nc4cccc(OC(F)(F)F)c4)n3n2)CC1 [Cpd 2]
remaining binding at 1 µM (FES): 87%
remaining binding at 1 µM (EGFR(S752-I759del)): 97%
remaining binding at 1 µM (SGK2): 100%
remaining binding at 1 µM (JAK2(JH1D.-cat.)): 96%
remaining binding at 1 µM (GSK3A): 100%
remaining binding at 1 µM (HCK): 96%
remaining binding at 1 µM (CSNK1A1): 100%
remaining binding at 1 µM (CSF1R-autoi.): 88%
remaining binding at 1 µM (FLT3(D835H)): 74%
remaining binding at 1 µM (PRKCQ): 55%
remaining binding at 1 µM (PDGFRB): 92%
remaining binding at 1 µM (BRK): 99%
remaining binding at 1 µM (PCTK2): 100%
remaining binding at 1 µM (EGFR(T790M)): 96%
remaining binding at 1 µM (CDK4-cyclinD1): 100%
remaining binding at 1 µM (MLK3): 100%
cytosolic cysteine cathepsin activity [1]: increased cytosolic cysteine cathepsin activity
remaining binding at 1 µM (BIKE): 83%
remaining binding at 1 µM (PIK3CD): 85%
remaining binding at 1 µM (AKT2): 100%
remaining binding at 1 µM (TRKC): 70%
remaining binding at 1 µM (PRKX): 100%
remaining binding at 1 µM (PAK7): 90%
remaining binding at 1 µM (KIT): 99%
remaining binding at 1 µM (EGFR(E746-A750del)): 77%
remaining binding at 1 µM (MET(Y1235D)): 93%
remaining binding at 1 µM (p38-beta): 100%
remaining binding at 1 µM (ERK1): 100%
remaining binding at 1 µM (ABL1(F317L)-P): 100%
remaining binding at 1 µM (NEK2): 94%
remaining binding at 1 µM (DDR2): 89%
remaining binding at 1 µM (CAMK1G): 92%
remaining binding at 1 µM (DRAK1): 97%
remaining binding at 1 µM (STK35): 92%
remaining binding at 1 µM (PRKD1): 98%
remaining binding at 1 µM (RPS6KA5(KD1-N-t.)): 100%
remaining binding at 1 µM (MST1): 100%

Fc1ccc(-n2cc(CCCCN3CCC4(CC3)OCc3ccccc34)c3ccccc32)cc1 [siramesine]
efficacy in vivo [2]: ineffective in vivo
